Patent publication US20190376110A1, “METHOD TO DETECT BACTERIAL ACTIVITY AND PATHOGENICITY WITH BIODYNAMIC SENTINELS” (Purdue Research Foundation, priority 2018, published 2019)

Columns and labels:
[1] = tested on: E. coli pellet; test: Biodynamic imaging / fluctuation spectroscopy of E. coli bacterial pellet; assay type: cell-based
Protocol: (§1) Various bacterial specimens can be prepared in a pellet form. A pellet is a condensed form of bacteria which allows them to be carried and handled more efficiently. Bacteria are grown in LB medium for 4 to 12 hours. When culturing is done, the bacteria density in medium is approximately 10^8 #/mL. To make the pellet, 25 mL of bacteria medium is stored in a centrifuge tube. The medium is centrifuged by 10,000 rpm for 10 minutes (Avanti J-20 XPI). During centrifugation, a pellet is formed at the bottom of a centrifuge tube.
(§2) There are two different sample plate preparations. A monoplex plate is a plate preparation format to test a rapid response of bacteria in single wells. The time resolution of the spectrum measurement is 2 minutes. A multiplex plate is a mode for measuring slow behavior using a measuring period is 30 minutes. For the multiplex, 16 wells are measured in parallel. A plate is firmly fixed on a translational stage controlled at 37 degrees Celsius or other temperature depending on the cell type and the bacterium. The plate is covered with a semi-permeable membrane which prevents the medium from drying out while permitting air molecule exchange.
Backscattered light from a specimen forms a speckle field consisting of many speckles with sizes determined by the point-spread-function of the imaging optics, and the speckle is delivered by a 4-f system (L1 and L2, f=15 cm). After the 4-f system, a lens (L3, f=5 cm) conducts Fourier transformation of the speckle and the Fourier image is formed at a Fourier plane on a Fourier-domain pixel array (such as a CCD).
To gain a more specific understanding of the effect of the nutrient shock, […] is used in a mode called […]. This breaks down the effects of a perturbation into a range of frequencies that are altered by the perturbation. Fluctuation spectroscopy is used routinely in biodynamic imaging applications for drug assays on cancer tissue. In the context of the bacterial pellets, the perturbation similarly can cause spectral changes whose specific frequencies relate to specific speeds of biological processes involved.

[2] = tested on: Listeria monocytogenes infection of DLD-1 sentinel; test: Tissue sentinel antibiotic assay, DLD-1 spheroids infected by Listeria; assay type: cell-based
Protocol: As one example of an infection assay, a DLD-1 colon cancer cell line is prepared as a tissue fragment sentinel. DLD-1 cell lines are cultured for 24 hours and form a spheroid shape after incubation. Spheroids are immobilized within two hours by poly-D-lysine after placing spheroids on a bottom of plate.
To obtain infection spectra, bacteria in a pellet form can be re-suspended by diluting a pellet with various media (5% NaCl, growth medium, PBS etc.). The diluting process produces a uniform concentration of bacteria, and the bacterial concentration can be controlled by controlling volumes of media.
as §2
One of the most important applications of the tissue sentinels is to serve as a dynamic substrate for the study of antibiotic sensitivity and resistance. […]

[3] = tested on: Salmonella pellet; test: Biodynamic imaging / fluctuation spectroscopy of Salmonella bacterial pellet; assay type: cell-based; conditions: short-time response within 30 minutes of dose
Protocol: as §1, §2
(§3) Backscattered light from a specimen forms a speckle field consisting of many speckles with sizes determined by the point-spread-function of the imaging optics, and the speckle is delivered by a 4-f system (L1 and L2, f=15 cm). […]

[4] = tested on: Listeria pellet; conditions: short-time response within 30 minutes of dose
Protocol: as §1, §2, §3

[Na+].[OH-] [NaOH]
spectrogram response of E. coli pellet to chemical agent ([1]; FIG. 10): broad inhibition of activity | low frequency response after adding chemical agents ([1]; FIG. 10 legend): highly suppressed

CC1(C)S[C@@H]2[C@H](NC(=O)Cc3ccccc3)C(=O)N2[C@H]1C(=O)O [penicillin, penicillin G]
time after antibiotic at which weak infection signal emerges ([2]; L. mono, penicillin alone): about 8 hours | inhibition of L. mono strain by antibiotic ([2]; penicillin alone without streptomycin, FIG. 22): not completely inhibited

O=C(O)c1cn(C2CC2)c2cc(N3CCNCC3)c(F)cc2c1=O [Cipro, Ciprofloxacin]
response of highest frequencies to Cipro [3]: not affected | response of highest frequencies to Cipro [4]: not affected | response of highest frequencies to Cipro ([1]; short-time response within 30 minutes of dose): not affected

CCO [ethanol]
response of highest frequency ([1]; 70% ethanol): relatively unaffected
